# Source: patent US20230293447A1, “CLEAVABLE LIPIDIC COMPOUNDS, COMPOSITIONS CONTAINING THEREOF, AND USES THEREOF” (priority 2020, published 2023)
# Columns and labels:
# hEPO = hEPO expression in mouse serum after intramuscular injection of LNPs containing hEPO mRNA (ELISA); assay type: in vivo, Balb/c ByJ mice; settings: 1 μg-dose of hEPO mRNA IM in quadriceps, serum 6 hours post-injection; LNPs lipid/DSPC/Chol/DMG-PEG2000 50:10:3.5:1.5, N/P 12
# Method: LNPs comprising lipidic compound of formula (III) (or DOG-Cleave) or one of the compounds (VI), (XVII), (XIX), (XXI), (XXII), (XXIV), (XXVII) and (XXVIII), DSPC, Chol and DMG-PEG2000 at a molar ratio of 50:10:3.5:1.5, and hEPO mRNA at a N/P charge ratio=12 (unless otherwise specified in the table), were prepared as described in Example 30 by using the NanoassemblR. An Aqueous/Ethanolic phase volume ratio of 3/1 and at total flow rate of 4 mL/min was used. LNPs were prepared at a concentration of 60 μg of hEPO mRNA/mL in PBS 1×.
# Four 8-week-old mice per group were injected on DO via intramuscular route in the quadriceps with 1 μg-dose of hEPO mRNA formulated in LNPs Lip. (IV)/DSPC under a final volume of 50 μL. As negative control, 4 mice received the same volume of PBS (for accelerated stability study and lipid screening) or Citrate Buffer (lipid screening)
# Blood samples were collected 6 hours post-injection to measure the expression of hEPO in serum using a specific ELISA assay.
# Blood samples were collected 6 hours post-injection by carotid section under deep anesthesia with Imalgene/Rompun (1.6 mg of Ketamine/0.32 mg of Xylazine) in serum-separation tubes (BD Vacutainer #BD367957). Sera were aliquoted and stored at −20° C. until hEPO determination.
# hEPO expression in mouse sera was assessed using human Erythropoietin Quantikine IVD ELISA kit (R&D Systems #DEP00). The ELISA was performed following supplier's instructions. Briefly, sera were added in pre-coated plates and incubated for one hour at room temperature under orbital shaking. After sera removal, Erythropoietin conjugate was added for one hour at room temperature under orbital shaking. Plates were washed and Substrate solution was added for 20-25 minutes at room temperature before stopping the reaction with Stop solution. Absorbance at 450 nm with 650 nm signal subtraction was determined in a microplate reader. Data were analyzed using SoftmaxPro software and expressed in log 10 of the concentration of hEPO measured in mouse sera in pg/mL.
# [1] = UHPLC-CAD-MS analysis of cleavage of DOG-Cleave during LNP formulation process; assay type: physicochemical; settings: from extracted ion chromatograms, same response factor assumed
Molecule,EPO secretion IM (hEPO) [Log10 pg/ml],also measured
"CCCCCCCC/C=C\CCCCCCCCOCC(COCCOCCOCCOCCOC(=O)CNCCOC(=O)[C@@H](N)COC)OCCCCCCCC/C=C\CCCCCCCC.Cl (stereo partly drawn) [Compound (VI), 2-[[2-[2-[2-[2-[2-[2,3-bis[(Z)-octadec-9-enoxy]propoxy]ethoxy]ethoxy]ethoxy]ethoxy]-2-oxoethyl]amino]ethyl (2S)-2-amino-3-methoxy-propanoate; Hydrochloride]",2.1,
"CCCCCCCC/C=C\CCCCCCCCOCC(COCCOCCOCCOCCOC(=O)CNCCOC(=O)CNCCOC)OCCCCCCCC/C=C\CCCCCCCC.O=C(O)C(F)(F)F.O=C(O)C(F)(F)F (centres unmarked) [Compound (III), 2-[[2-[2-[2-[2-[2-[2,3-bis[(Z)-octadec-9-enoxy]propoxy]ethoxy]ethoxy]ethoxy]ethoxy]-2-oxo-ethyl]amino]ethyl 2-(2-methoxyethylamino)acetate;2,2,2-trifluoroacetic Acid]",1.5,Relative amount in DOG-Cleave EtOH solution [1]: 75%; Relative amount in Final LNP [1]: 25%; Relative amount in LNP after 1st dialysis [1]: 59%
"CCCCCCCCC(CCCCCC)C(=O)OCCCCCCOCC(OCCCCCCOC(=O)C(CCCCCC)CCCCCCCC)C(=O)N(CCCCCCCC)CCOCCOCCOCCOCCOC(=O)CNCCOC(=O)CNCCOC (centres unmarked) [Compound (XXVIII), 6-[2-[6-(2-hexyldecanoyloxy)hexoxy]-3-[2-[2-[2-[2-[2-[2-[2-[2-(2-methoxyethylamino)acetyl]oxyethylamino]acetyl]oxyethoxy]ethoxy]ethoxy]ethoxy]ethyl-octyl-amino]-3-oxopropoxy]hexyl 2-hexyldecanoate;2,2,2-trifluoroacetic acid]",2.3,
"CCCCCCCCC=CCCCCCCCCOCC(OCCCCCCCCC=CCCCCCCCC)C(CCCCCCCCCCCC)OC(=O)NCCOCCOCCOCCOC(=O)CNCCOC(=O)CNCCOC.O=C(O)C(F)(F)F (centres unmarked) [Compound (XXIV), 2-[[2-[2-[2-[2-[2-[1-[1,2-bis[(Z)-octadec-9-enoxy]ethyl]tridecoxycarbonylamino]ethoxy]ethoxy]ethoxy]ethoxy]-2-oxo-ethyl]amino]ethyl 2-(2-methoxyethylamino)acetate;2,2,2-trifluoroacetic Acid]",1.9,
"CCCCCCCCCOC(=O)CCCCCCCN(CCCCCCCC(=O)OC(CCCCCCCC)CCCCCCCC)C(=O)CCOCCOCCOCCOC(=O)CNCCOC(=O)CNCCOC [Compound (XXVII), nonyl 8-[3-[2-[2-[2-[2-[2-[2-(2-methoxyethylamino)acetyl]oxyethylamino]acetyl]oxyethoxy]ethoxy]ethoxy]propanoyl-[8-(1-octylnonoxy)-8-oxo-octyl]amino]octanoate;2,2,2-trifluoroacetic Acid]",1.9,
"CCCCCCCCC=CCCCCCCCCOCC(OCCCCCCCCC=CCCCCCCCC)C(=O)N(CCCCCCCC)CCOCCOCCOCCOCCOC(=O)CNCCOC(=O)CNCCOC.O=C(O)C(F)(F)F (centres unmarked) [Compound (XIX), 2-[[2-[2-[2-[2-[2-[2-[2,3-bis[(Z)-octadec-9-enoxy]propanoyl-octylamino]ethoxy]ethoxy]ethoxy]ethoxy]ethoxy]-2-oxo-ethyl]amino]ethyl 2-(2-methoxyethylamino)acetate;2,2,2-trifluoroacetic Acid]",2.4,
"[(Z)-non-2-enyl] 8-[3-[2-[2-[2-[2-[2-[2-[2-(2-methoxyethylamino)acetyl]oxyethylamino]acetyl]oxyethoxy]ethoxy]ethoxy]ethoxy]-2-[8-[(Z)-non-2-enoxy]-8-oxo-octoxy]propoxy]octanoate;2,2,2-trifluoroacetic Acid [Compound (XVII)]",2.4,
"CCCCCCC(CCCC)C(=O)OCCCCCCOCC(COCCOCCOCCOCCOC(=O)CNCCOC(=O)CNCCOC)OCCCCCCOC(=O)C(CCCC)CCCCCC (centres unmarked) [Compound (XXII), 6-[2-[6-(2-butyloctanoyloxy)hexoxy]-3-[2-[2-[2-[2-[2-[2-[2-(2-methoxyethylamino)acetyl]oxyethylamino]acetyl]oxyethoxy]ethoxy]ethoxy]ethoxy]propoxy]hexyl 2-butyloctanoate;2,2,2-trifluoroacetic Acid]",2.5,
